# In patent US20250064750A1, “LIPID AND COMPOSITION USED FOR DELIVERY” (JIANGSU HENGRUI PHARMACEUTICALS CO., LTD., priority 2021, published 2025):
# Read-outs that look alike come from different tables or passages of the source.
# Key:
# [1] = pKa of cations in liposomal nanoparticles, TNS fluorescence analysis; assay type: physicochemical; conditions: pH at half-maximal TNS fluorescence
# Experimental: (§1) Compound 1, compound 2, and comparative compound 1 were each dissolved in an ethanol solution, and the resulting solution was mixed with solutions of DSPC, cholesterol, and DMG-PEG in ethanol in a mole ratio of 50:10:38.5:1.5 to prepare an ethanol lipid solution. mRNA encoding a human growth factor was dissolved in a citrate buffer to prepare an aqueous mRNA solution. Liposomes were prepared by mixing the ethanol lipid solution and the aqueous mRNA solution by microfluidics with a weight ratio of total lipids to mRNA of about 20:1. The ethanol was removed by dialysis against PBS solution to give an mRNA-encapsulating liposomal nanoparticle composition.
# The pKa of cations in the liposomal nanoparticles was determined using a fluorescence analysis based on 6-(p-toluidino)-2-naphthalenesulfonic acid sodium salt (TNS). 150 mM NaCl, 10 mM sodium phosphate, 10 mM sodium citrate, 10 mM sodium borate, and buffers of various pH levels ranging from 3 to 11.5 were prepared. A 300 μM TNS solution was prepared and added to the buffers. The lipid nanoparticles were added to the buffers of different pH levels and thoroughly mixed with them. Then the fluorescence intensity at an excitation wavelength of 325 nm and an emission wavelength of 435 nm was measured at room temperature using a fluorescence microplate reader. A fitting analysis of the fluorescence data was performed, with the pKa being the pH value at which half-maximal fluorescence intensity was produced.
# interleukin 6 (IL-6) = experiment: In vivo immunogenicity: serum IL-6 concentration by ELISA after tail vein injection; set-up: species or system BALB/c mice; conditions: 0.5 mg/kg, 6 hours
# From the text: When exogenous substances enter the bodies of mammals, they induce an innate immune response, thereby promoting the production of cytokines. These exogenous substances can cause inflammatory reactions after entry into the body, which easily give rise to adverse reactions such as fever and edema in the body. The immunogenicity of lipid nanoparticles in the body was therefore evaluated by evaluating the concentration of a cytokine such as interleukin 6 (IL-6) in the blood of mice injected with lipid nanoparticles. Lower cytokine concentrations indicate that the lipid nanoparticles have lower immunogenicity, which means that they are biologically safer.
# After 6 hours, blood was collected and serum was isolated. The IL-6 concentration in the serum was measured using a mouse IL-6 ELISA kit.
# [2] = Liposome encapsulation efficiency, Quant-iT RiboGreen RNA assay; assay type: physicochemical; conditions: mRNA-encapsulating liposomal nanoparticles
# Experimental: as §1
# The liposome encapsulation efficiency was determined using a Quant-iT RiboGreen RNA assay kit.
# [3] = Size and polydispersity index of liposomal nanoparticles by dynamic light scattering; assay type: physicochemical; conditions: mRNA-encapsulating liposomal nanoparticles; lipid:DSPC:cholesterol:DMG-PEG 50:10:38.5:1.5
# Experimental: as §1
# The size and polydispersity index (PDI) of the liposomal nanoparticles were determined using a Malvern Zetasizer Nano ZS in a 173° backscatter detection mode through dynamic light scattering.
# luciferase protein = experiment: Tail vein injection in vivo mRNA delivery efficiency, whole-body luciferase fluorescence intensity (IVIS); set-up: species or system BALB/c mice; conditions: 0.5 mg/kg, 6 hours; for Fluorescence intensity level (p/s): whole body
# Experimental: After 6 hours, the luciferase substrate was injected intraperitoneally into each mouse. Fluorescence images of the mice were captured using an IVIS small animal optical in vivo imaging system (PerkinElme), and the whole-body fluorescence intensity of the mice was recorded. The level of fluorescence intensity reflects the expression level of luciferase protein, i.e., the in vivo mRNA delivery efficiency of the liposomal nanoparticles. […] In FIG. 2, the fluorescence intensity refers to the whole-body fluorescence intensity of the mice recorded using the IVIS small animal optical in vivo imaging system. The level of fluorescence intensity reflects the expression level of luciferase protein, i.e., the in vivo mRNA delivery efficiency of the lipid nanoparticles.
# With the liposomal nanoparticles to which comparative compound 1 corresponds as a control, the mouse tail vein injection in vivo mRNA delivery efficiency of the liposomal nanoparticles to which compound 1, compound 3, and compound 4 correspond was measured.
# [4] = tested on: hepatocyte growth factor protein; experiment: In vivo mRNA delivery by intramuscular injection, hepatocyte growth factor protein expression by ELISA; set-up: species or system BALB/c mice; conditions: HGF mRNA lipid nanoparticles, 0.05 mg/kg; for Mean protein expression level: thigh muscle injection, muscle tissue after 24 hours
# Experimental: After 24 hours, the muscle tissue at the injection site was collected, ground, and lysed. The expression level of hepatocyte growth factor protein (pg/mg), i.e., the hepatocyte growth factor protein amount to which the unit muscle tissue total protein amount corresponds, was then measured using an ELISA kit.
# With the liposomal nanoparticles to which comparative compound 1 corresponds as a control, the intramuscular injection in vivo mRNA delivery efficiency of the liposomal nanoparticles to which compounds 1 and 2 correspond was measured.
# [5] = female, BALB/c, mouse, in vivo, 0.5 mg/kg
# Experimental: (§2) To evaluate the targeting in liposomal nanoparticles' in vivo delivery, liposomal nanoparticles with mRNA for expression of hepatocyte growth factor encapsulated therein were injected into the tail veins of 6-8 week old female BALB/c mice at a dose of 0.5 mg/kg. Plasma, liver, and spleen samples were collected at 1 hour, 2 hours, 4 hours, 6 hours, 24 hours, and 48 hours after injection of the lipid nanoparticles, and the concentrations of cationic lipid molecules in the plasma samples at the corresponding time points were determined by LC-MS mass spectrometry to evaluate the metabolism and in vivo clearance rate of the lipid nanoparticles. For the lipid nanoparticles to which each compound corresponds, at least 3 biological replicates were used, and the mean cationic lipid concentrations in the tissues were calculated.
# (§3) Based on pharmacokinetic parameters, the half-lives of the cationic lipids in the tissues were calculated.
# in vivo = conditions: female, BALB/c, mouse, 0.5 mg/kg
# Experimental: as §2, §3
# [6] = Tissue targeting: cationic lipid concentrations in liver and spleen after tail vein injection, LC-MS; assay type: in vivo, BALB/c mice; conditions: 0.5 mg/kg; for AUC(0-t): female, BALB/c, mouse, intravenous, HGF mRNA lipid nanoparticles
# Experimental: Based on pharmacokinetic parameters, the total cationic lipid concentrations in the tissues 48 hours after administration were calculated to evaluate the distribution of lipid nanoparticles in the liver and spleen.
# [7] = luciferase mRNA lipid nanoparticles
# [8] = luciferase mRNA lipid nanoparticles, tail vein
pKa [1],serum IL-6 concentration compared with comparative compound 1 (interleukin 6 (IL-6)),Encapsulation efficiency (%) [2],PDI [3],Size (nm) [3],time at which completely cleared from plasma [5],concentration at 1 h (in vivo),half-life (in vivo; Half-life (hours) Liver),half-life (in vivo; Half-life (hours) Spleen),"AUC(0-t) ([6]; cationic lipid in liver, read-out: AUC48 h (h*μg/mL) Liver)","AUC(0-t) ([6]; cationic lipid in spleen, read-out: AUC48 h (h*μg/mL) Spleen)",concentration in the liver compared with comparative compound 1 ([6]; liver samples at the various time points (FIG. 3)),concentration in the spleen compared with comparative compound 1 ([6]; spleen (FIG. 4)),Compound,tail vein injection in vivo mRNA delivery efficiency compared with comparative compound 1 (luciferase protein; [7]),Fluorescence intensity level (p/s) (luciferase protein; [8]),Mean protein expression level [4],in vivo mRNA delivery via intramuscular injection compared with comparative compound 1 ([4]; 24 hours),in vivo mRNA delivery via intramuscular injection compared with compound 2 ([4]; 24 hours),tail vein injection in vivo mRNA delivery efficiency compared with comparative compound 3 (so in the source) (luciferase protein; [7]),protein expression level relative to lipid nanoparticles of comparative compound 1 (luciferase protein; tail vein)
6.3,significantly lower,97.3%,0.07,74.8 nm,–,–,–,–,–,–,–,–,CCCCCCCCCCCOC(=O)CCCCCN(CCO)CCCCCOC(C)(C)C(=O)OC(CCCCCCCC)CCCCCCCC [Compound 4],significantly outperformed,6.78E+08 p/s,–,–,–,–,–
6.38,–,97.3%,0.07,116.5 nm,–,–,–,–,–,–,–,–,CCCCCCCCCCCOC(=O)CCCCCN(CCO)CCOCCCCC(=O)OC(CCCCCCCC)CCCCCCCC [Compound 2],–,–,92.5 pg/mg,–,–,–,–
6.65,significantly lower,94.6%,0.08,87.8 nm,4 h,1160 ng/mL,34.2 h,31.9 h,540 µg·h/mL,493 µg·h/mL,significantly higher,significantly lower,CCCCCCCCCCCOC(=O)CCCCCN(CCO)CCCCCOCC(=O)OC(CCCCCCCC)CCCCCCCC [Compound 1],significantly better,1.05E+09 p/s,217.3 pg/mg,significantly outperformed,significantly outperformed,significantly outperformed,2.1 times
6.49,–,96.7%,0.09,79.6 nm,–,–,–,–,–,–,–,–,CCCCCCCCCCCOC(=O)CCCCCN(CCO)CCCCCO[C@@H](C)C(=O)OC(CCCCCCCC)CCCCCCCC [Compound 3],–,4.28E+06 p/s,–,–,–,–,–
